In PubChem BioAssay (NCI):
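Results reflect a 48-hour exposure of cells in 96-well plates to compound at five concentrations. TGI: total growth inhibition.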

Experiments:
Test in all cases: NCI tumour cell line growth inhibition, 48 h
MDA-N = tested on: MDA-N
RXF-631 renal = tested on: RXF-631 renal
XF 498 CNS = tested on: XF 498 CNS
LXFL 529 NSCLC = tested on: LXFL 529 NSCLC
HOP-18 NSCLC = tested on: HOP-18 NSCLC
SN12K1 renal = tested on: SN12K1 renal
P388 leukemia = tested on: P388 leukemia

SMILES | TGI (MDA-N) | TGI (RXF-631 renal) | TGI (XF 498 CNS) | TGI (LXFL 529 NSCLC) | also measured
C[C@]12CC[C@@H]3c4ccc(OCCN5CCCC5)cc4CC[C@H]3[C@@H]1CCC2=O | 64.3 µM |  |  |  | 
O=C(O)c1nccnc1C(=O)O |  | > 100 µM | > 100 µM | > 100 µM | 
O=c1nc2sc3ccc4ccccc4c3n2[nH]c1=O |  |  |  | > 100 µM | TGI (HOP-18 NSCLC): > 100 µM
CCCCN=C1OCc2[nH][nH]c(=O)c21 |  | > 100 µM | > 100 µM | > 100 µM | 
CCCOC1OC(CS(=O)(=O)O)C(O)C(O)C1O (stereo not drawn) | > 100 µM |  |  |  | 
COc1cc2c(c(OC(C)=O)c1OC(C)=O)-c1ccc(SC)c(=O)cc1C(NC(C)=O)CC2 (stereo not drawn) |  |  | 42.4 µM | > 82.3 µM | TGI (HOP-18 NSCLC): > 100 µM
[O-][n+]1c(-c2ccccc2)c2nc3ccccc3nc2c2ccccc21 |  | > 100 µM | > 100 µM | 93.9 µM | 
N#CCCN(CCC#N)c1ccc(/C=C2\N=C(c3cc([N+](=O)[O-])ccc3Cl)N(NC(=O)CC(=O)Nc3ccccc3Cl)C2=O)cc1 |  |  | > 100 µM | > 100 µM | 
CCN(CC)CCNc1ccc2nnn3c4ccccc4c(=O)c1c23 |  | 13.7 µM | 13.6 µM | 21.8 µM | 
CCOC(=O)NC(Nc1ccc(Cl)cn1)(C(F)(F)F)C(F)(F)F | > 100 µM |  |  |  | 
CC(C)CN(CC#N)CC(C)C | > 100 µM |  |  |  | 
NC(N)=NC(N)=Nc1ccccc1 (tested in a mixture with another compound) | > 100 µM |  |  |  | 
C=CCc1cccc(/C=N\N=C(/N)NO)c1O |  |  | 9.65 µM |  | TGI (SN12K1 renal): 11.6 µM; TGI (P388 leukemia): 3.19 µM; TGI (HOP-18 NSCLC): > 100 µM
